“Also recorded” adds a separate entry of the source.
Tests used:
[1] = system: human peripheral blood NK cells; assay: Ex-vivo expansion of T-cell depleted peripheral blood NK cells in culture with cytokines; assay type: cell-based
Procedure: For depletion procedure, total nuclear cells from umbilical cord blood (CB), bone marrow (BM) or peripheral blood (PB) cells were layered on a Ficoll-Hypaque gradient (1.077 g/mL; Sigma), and centrifuged at 800×g for 30 minutes for separation of the mononuclear cells. The cells in the interface layer were collected and washed three times in phosphate-buffered saline (PBS) (Biological Industries, Israel) containing 0.5% HSA. Optionally, cells are not separated on the Ficoll-Hypaque gradient but washed three times in phosphate-buffered saline (PBS) (Biological Industries) containing 0.5% HSA (“total mononuclear fraction”). CD3 cells were depleted using the CD3 cell isolation kit (Miltenyi Biotec Bergisch, Gladbach, Germany) and the entire CD3 negative cell fraction was cultured. […] After negative depletion the cells were counted and characterized by FACS analysis. […] To estimate number of cells in culture, cell samples were counted following staining with trypan blue. […] In order to calculate the number of NK cells on day 0, the total number of cells seeded on day 0 was multiplied by the percent of CD56+/CD3− cells measured by the FACS on day 0. […] In order to determine the number of NK cells in culture, the total number of cells in culture was multiplied by the percent of CD56+/CD3− cells measured with the FACS on days 14 or 21. […]

PD-1 = PD-1 expression on NK cell surface, by FACS; assay type: cell-based, human; conditions: PB derived NK cells; SR1 10-1000 nM, 14 and 21 days, vs cytokines only; FIG. 4B
Text: (§1) For FACS analysis cells were stained with the following fluorescent antibodies: CD15 FITC, Cat. No. 332778, CD14 FITC, Cat. No. 345784, CD3 APC, Cat. No. 345767, all from Becton Dickinson (San Jose, Calif., USA), CD62L PE, Cat. No. 304806 from BioLegend (San Diego, Calif., USA), CD56 FITC, Cat. No. 11-0569-42 from eBioscience (San Diego, Calif., USA) and CD45 PE, Cat. No. R7807 from Dako (Glostrup, Denmark) and anti-CD200R and anti-PD-1 fluorescent antibodies. The cells were washed with a PBS solution containing 1% BSA, and stained (at 4° C. for 30 min) with fluorescein isothiocyanate (FITC)- or phycoerythrin (PE)-conjugated antibodies or allophycocyanin (APC). The cells were then washed in the above buffer and analyzed using a FACScalibur® flow cytometer (Becton Dickinson, San Jose, Calif., USA). The cells were passed at a rate of up to 1000 cells/second, using a 488 nm or 661 nm argon laser beam as the light source for excitation. Emission of 10^4 cells was measured using logarithmic amplification, and analyzed using the CellQuest software (Becton Dickinson). Cells stained with FITC, PE and APC-conjugated isotype control antibodies were used to determine background fluorescence. […] NK cells were stained with specific antibodies for the specified surface markers (CD62L, CD200R, PD-1) after 3 weeks incubation with SR1, and then monitored by FACS.

CD200R = CD200R expression on NK cell surface, by FACS; assay type: cell-based, human; conditions: PB derived NK cells; SR1 10-1000 nM, 14 and 21 days, vs cytokines only; FIG. 4A
Text: as §1

CD3+CD56− cells = assay: T-cell fraction (CD3+CD56-) in cultures of T-cell depleted peripheral blood NK cells, by FACS; assay type: cell-based, human; conditions: 21 day cultures; SR1 10 to 1000 nM vs cytokines only (SR1 0); FIG. 2
Procedure: For depletion procedure, total nuclear cells from umbilical cord blood (CB), bone marrow (BM) or peripheral blood (PB) cells were layered on a Ficoll-Hypaque gradient (1.077 g/mL; Sigma), and centrifuged at 800×g for 30 minutes for separation of the mononuclear cells. The cells in the interface layer were collected and washed three times in phosphate-buffered saline (PBS) (Biological Industries, Israel) containing 0.5% HSA. Optionally, cells are not separated on the Ficoll-Hypaque gradient but washed three times in phosphate-buffered saline (PBS) (Biological Industries) containing 0.5% HSA (“total mononuclear fraction”). CD3 cells were depleted using the CD3 cell isolation kit (Miltenyi Biotec Bergisch, Gladbach, Germany) and the entire CD3 negative cell fraction was cultured. […] After negative depletion the cells were counted and characterized by FACS analysis. […] To estimate number of cells in culture, cell samples were counted following staining with trypan blue. […] The cells were then washed in the above buffer and analyzed using a FACScalibur® flow cytometer (Becton Dickinson, San Jose, Calif., USA). […] Emission of 10^4 cells was measured using logarithmic amplification, and analyzed using the CellQuest software (Becton Dickinson). Cells stained with FITC, PE and APC-conjugated isotype control antibodies were used to determine background fluorescence.

CD62L = CD62L expression on NK cell surface, by FACS; assay type: cell-based, human; conditions: PB derived NK cells; SR1 10-1000 nM, 14 and 21 days, vs cytokines only; FIG. 3
Text: as §1

human NK cells = assay: In-vivo homing and engraftment of cultured, CFSE-stained human NK cells in spleen of irradiated NSG mice; set-up: species or system NOD.Cg-Prkdcscid Il2rgtm1Wjl/SzJ (NSG) mice; conditions: 15×10^6 NK cells cultured 2-3 weeks with SR1 vs without; irradiated (350 Rad) NSG mice; 4 days post infusion; FIG. 5
Procedure: NK cells were expanded with or without 1000 nM SR1, as described above. After 2 weeks in culture, cells were stained with CFSE and similar numbers (15×10^6) of cells were infused into irradiated (350 Rad) NSG mice. Mice were sacrificed 4-days post infusion. Spleens were analyzed for the homing and engraftment of human NK cells based on the CFSE fluorescence, in order to distinguish them from endogenous cells. Engraftment is expressed as the % of cells staining with CFSE. Irradiated (350 Rad) NOD.Cg-Prkdcscid Il2rgtm1Wjl/SzJ (NSG) mice received 15×10^6 cells from human peripheral blood NK (T-cell depleted) cultures maintained for up to 3 weeks with SR1 or without (SR1 0) SR1. Prior to infusion NK cells were stained with CFSE. Upon sacrifice of the mice 4 days post infusion, samples of spleen were evaluated by FACS for the percent of cells that are stained with CFSE.

CC(C)n1cnc2c(NCCc3ccc(O)cc3)nc(-c3csc4ccccc34)nc21 [SR1, 4-(2-(2-(benzo[b]thiophen-3-yl)-9-isopropyl-9H-purin-6-ylamino)ethyl)phenol]
cells in culture that were NK (CD56+CD3-) cells ([1]; CD3+ or CD3+/CD19+ depleted peripheral blood mononuclear cells (2-10% NK at seeding), 2-3 weeks in culture with SR1): more than 90% | NK expansion (fold increase relative to day 0) ([1]; day 21, SR1 10-1000 nM with cytokines (IL-2, IL-15) vs cytokines only (SR1 0), FIG. 1): greatly increased expansion; also recorded: significantly higher | expression of PD-1 (PD-1): reduced expression | expression of CD200R (CD200R): reduced expression | percentages of CD3+CD56− cells (T-cell fraction) (CD3+CD56− cells): less prominent than in control; also recorded: lower than in control cultures | expression of CD62L (CD62L): dramatically enhanced expression; also recorded: strongly enhanced expression | homing and engraftment into spleen (% of cells staining with CFSE) (human NK cells): significantly higher; also recorded: increased localization and engraftment

Reference: patent US9175266B2, “Enhancement of natural killer (NK) cell proliferation and activity” (Gamida Cell Ltd., priority 2012, dated 2015)
